Experimental data: ChEMBL document CHEMBL1201862, “PubChem BioAssay data set” (2004)
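Step 1: Grow cells in 96-well plates. Step 2: Expose to compound for 48 hours at 5 concentrations. Step 3: Interpolate endpoints linearly; if unreached, use highest concentration. GI50 = concentration required for 50% inhibition of growth.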 Calls of active or inactive are those of the source. No stated cut-off is given here; in the data, active = GI50 up to about 1.1 µM and inactive = higher.

Experiments:
Assay in all cases: NCI-60 cell line screen, 48 h
SK-MEL-28 = tested on: SK-MEL-28
RPMI-8226 = tested on: RPMI-8226
A549 = tested on: A549
KM12 = tested on: KM12
HCT-15 = tested on: HCT-15
MDA-N = tested on: MDA-N
ACHN = tested on: ACHN
NCI-H460 = tested on: NCI-H460
Malme-3M = tested on: Malme-3M
UACC-62 = tested on: UACC-62
SK-MEL-5 = tested on: SK-MEL-5
T47D = tested on: T47D
COLO 205 = tested on: COLO 205
NCI/ADR-RES = tested on: NCI/ADR-RES
SN12C = tested on: SN12C
SR = tested on: SR
SF-295 = tested on: SF-295
OVCAR-8 = tested on: OVCAR-8
NCI-H226 = tested on: NCI-H226
OVCAR-4 = tested on: OVCAR-4

Row | SMILES | GI50 (SK-MEL-28) | GI50 (RPMI-8226) | GI50 (A549) | GI50 (KM12) | GI50 (HCT-15) [µM] | GI50 (MDA-N) | GI50 (ACHN) | GI50 (NCI-H460) | GI50 (Malme-3M) | GI50 (UACC-62) | GI50 (SK-MEL-5) | GI50 (T47D) | GI50 (COLO 205) | GI50 (NCI/ADR-RES) | GI50 (SN12C) | GI50 (SR) | GI50 (SF-295) | GI50 (OVCAR-8) | GI50 (NCI-H226) | GI50 (OVCAR-4)
1 | CC(C)CNC(=O)O | > 100 µM (inactive) | > 100 µM (inactive) | > 100 µM (inactive) | > 100 µM (inactive) | > 100 | > 100 µM (inactive) | > 100 µM (inactive) | > 100 µM (inactive) | > 100 µM (inactive) | > 100 µM (inactive) | > 100 µM (inactive) | > 100 µM (inactive) | > 100 µM (inactive) | > 100 µM (inactive) | > 100 µM (inactive) | > 100 µM (inactive) | > 100 µM (inactive) | > 100 µM (inactive) | > 100 µM (inactive) | > 100 µM (inactive)
2 | CC1=NN(c2cc(Cl)c(S(=O)(=O)O)cc2Cl)C2(C1)C(Cl)C(=O)N2c1nc2ccccc2s1 (centres undefined) | > 100 µM (inactive) | 79.3 µM (inactive) | > 100 µM (inactive) | 97.9 µM (inactive) | > 100 | > 100 µM (inactive) | > 100 µM (inactive) | > 100 µM (inactive) | > 100 µM (inactive) | 71 µM (inactive) | > 100 µM (inactive) | 66.1 µM (inactive) | > 100 µM (inactive) | > 100 µM (inactive) | > 100 µM (inactive) | 89.9 µM (inactive) |  | 86.9 µM (inactive) | 53.5 µM (inactive) | > 100 µM (inactive)
3 | O=C1O[B-](c2ccccc2)(c2ccccc2)[NH+]2CCCC12 (centres undefined) | 99.5 µM (inactive) | 72.8 µM (inactive) | > 100 µM (inactive) | > 100 µM (inactive) | 59.3 | 85.1 µM (inactive) | 75.7 µM (inactive) | > 100 µM (inactive) | 51.1 µM (inactive) | > 100 µM (inactive) | 33 µM (inactive) | 76.9 µM (inactive) | 31.6 µM (inactive) | 84.7 µM (inactive) | > 100 µM (inactive) | > 100 µM (inactive) | > 100 µM (inactive) | 74 µM (inactive) | 49 µM (inactive) | > 100 µM (inactive)
4 | O=[N+]([O-])c1cccc(/C=N/N=c2\ccc3ccccc3[nH]2)c1O | 2.79 µM (inactive) | 1.37 µM (inactive) | 2.4 µM (inactive) | 1.87 µM (inactive) | 0.146 | 5.64 µM (inactive) | 0.478 µM (active) | 0.448 µM (active) | 1.88 µM (inactive) | 1.43 µM (inactive) | 0.984 µM (active) | 0.807 µM (active) | 2.21 µM (inactive) | 0.151 µM (active) | 1.53 µM (inactive) | 0.466 µM (active) | 1.01 µM (active) | 2.21 µM (inactive) | 2.64 µM (inactive) | 1.07 µM (active)
5 | Cn1cnc(N2CCCC2)c(C#N)c1=O | > 100 µM (inactive) | > 100 µM (inactive) | > 100 µM (inactive) | > 100 µM (inactive) | > 100 | > 100 µM (inactive) | > 100 µM (inactive) | > 100 µM (inactive) | > 100 µM (inactive) | > 100 µM (inactive) | > 100 µM (inactive) | > 100 µM (inactive) | > 100 µM (inactive) | > 100 µM (inactive) | > 100 µM (inactive) | > 100 µM (inactive) | > 100 µM (inactive) | > 100 µM (inactive) | > 100 µM (inactive) | > 100 µM (inactive)
6 | CN(C)/C=C/C=C(/C=N/S(=O)(=O)C(F)(F)F)C1C=CN(S(=O)(=O)C(F)(F)F)C=C1 | 91.8 µM (inactive) | 38.3 µM (inactive) | 32.4 µM (inactive) | 25 µM (inactive) | 23.4 | 36.7 µM (inactive) | 28.8 µM (inactive) | 24.3 µM (inactive) | 32 µM (inactive) | 42.3 µM (inactive) | 23.5 µM (inactive) | 23.4 µM (inactive) | 17.7 µM (inactive) | 30.3 µM (inactive) | 40.6 µM (inactive) | 30.1 µM (inactive) | 38.2 µM (inactive) | 37.7 µM (inactive) | 26 µM (inactive) | 15.8 µM (inactive)
7 | CC(=O)NC1C(OCc2ccccc2)OC(CO)C(O)C1OC(C)C(=O)NC(C)C(=O)NC(CCC(=O)NCCCNc1c2ccccc2nc2cccc([N+](=O)[O-])c12)C(N)=O (centres undefined) | 2.58 µM (inactive) | 0.59 µM (active) | 1.43 µM (inactive) | 2.57 µM (inactive) | 1.67 | 1.25 µM (inactive) | 0.792 µM (active) | 0.258 µM (active) | 2.21 µM (inactive) | 1.25 µM (inactive) | 1.01 µM (active) | 16.8 µM (inactive) | 0.57 µM (active) | 4.09 µM (inactive) | 1.02 µM (active) | 5.48 µM (inactive) | 3.26 µM (inactive) | 1.05 µM (active) | 2.79 µM (inactive) | 5.14 µM (inactive)
8 | COP(=O)(OC)C(O)/C=C/c1ccco1 (centres undefined) | > 100 µM (inactive) | > 100 µM (inactive) | > 100 µM (inactive) | > 100 µM (inactive) | > 100 | > 100 µM (inactive) | > 100 µM (inactive) |  | > 100 µM (inactive) | > 100 µM (inactive) | > 100 µM (inactive) | > 100 µM (inactive) | > 100 µM (inactive) | > 100 µM (inactive) | > 100 µM (inactive) | > 100 µM (inactive) | > 100 µM (inactive) | > 100 µM (inactive) | > 100 µM (inactive) | > 100 µM (inactive)
9 | COc1cc(C2c3cc4c(cc3OC(NN=C(C)C)C2C)OCO4)cc(OC)c1O (centres undefined) | 11.5 µM (inactive) | 6.21 µM (inactive) | 22.9 µM (inactive) | 21.2 µM (inactive) | 7.43 | 3 µM (inactive) |  |  | 8.75 µM (inactive) | 19.2 µM (inactive) | 10.8 µM (inactive) | 69.2 µM (inactive) | 30.9 µM (inactive) | 18 µM (inactive) | 8.39 µM (inactive) | 1.44 µM (inactive) | 18.9 µM (inactive) | 27.5 µM (inactive) | > 100 µM (inactive) | 48.3 µM (inactive)
10 | CSc1nc(=S)[nH]c2[nH]nc(C)c12 | > 100 µM (inactive) | > 100 µM (inactive) | > 100 µM (inactive) | > 100 µM (inactive) | > 100 | > 100 µM (inactive) |  | > 100 µM (inactive) | > 100 µM (inactive) | > 100 µM (inactive) | > 100 µM (inactive) | > 100 µM (inactive) | > 100 µM (inactive) | > 100 µM (inactive) | > 100 µM (inactive) | 94.4 µM (inactive) |  | > 100 µM (inactive) | > 100 µM (inactive) | > 100 µM (inactive)
11 | O=C1C=C2CCC[C@H]3OC(=O)C[C@@]23CC1 | > 100 µM (inactive) | > 100 µM (inactive) | > 100 µM (inactive) | > 100 µM (inactive) | > 100 | > 100 µM (inactive) | > 100 µM (inactive) | > 100 µM (inactive) | > 100 µM (inactive) | > 100 µM (inactive) | > 100 µM (inactive) | > 100 µM (inactive) | > 100 µM (inactive) | > 100 µM (inactive) | > 100 µM (inactive) | > 100 µM (inactive) | > 100 µM (inactive) |  | > 100 µM (inactive) | > 100 µM (inactive)
12 | O=C1c2ccccc2C(=O)c2c(NCCNC(=O)C3CCCN3)ccc(NCCNC(=O)C3CCCN3)c21 (centres undefined) | 41.7 µM (inactive) | 22.6 µM (inactive) | > 100 µM (inactive) | 23.2 µM (inactive) | > 100 | 46.5 µM (inactive) | 53.7 µM (inactive) |  | 95.9 µM (inactive) | 38.7 µM (inactive) | 88.5 µM (inactive) | 30 µM (inactive) | 24.5 µM (inactive) | > 100 µM (inactive) | 46 µM (inactive) | 22 µM (inactive) | > 100 µM (inactive) | 33.9 µM (inactive) | > 100 µM (inactive) | > 100 µM (inactive)
13 | CC1(C)OCN(c2ccc(Cl)cc2)Cn2c1nc1ccccc12 | > 19.9 µM (inactive) | 19 µM (inactive) | 6.44 µM (inactive) | 1.61 µM (inactive) | 0.431 | 3.05 µM (inactive) | 31.8 µM (inactive) | > 21.7 µM (inactive) | > 100 µM (inactive) | 1.41 µM (inactive) | 0.571 µM (active) | > 100 µM (inactive) | 3.34 µM (inactive) | 27 µM (inactive) | 70.5 µM (inactive) | 9.25 µM (inactive) |  | 69 µM (inactive) | > 100 µM (inactive) | 51.4 µM (inactive)
14 | CC(=N\N)/C(C)=N/N=C(C)/C(C)=N/N=C(C)/C(C)=N/N | > 100 µM (inactive) | > 100 µM (inactive) | > 100 µM (inactive) | > 100 µM (inactive) | > 100 | > 100 µM (inactive) | > 100 µM (inactive) | > 100 µM (inactive) | > 100 µM (inactive) |  | > 100 µM (inactive) | > 100 µM (inactive) | > 100 µM (inactive) | > 100 µM (inactive) | > 100 µM (inactive) | > 100 µM (inactive) | > 100 µM (inactive) | > 100 µM (inactive) | > 100 µM (inactive) | > 100 µM (inactive)
15 | CCOC(=O)Cn1c(=O)c2nc(SC)sc2n(-c2ccc(C)cc2)c1=S | > 100 µM (inactive) | > 100 µM (inactive) | > 60.4 µM (inactive) |  | > 100 | > 100 µM (inactive) | 48.1 µM (inactive) | 48 µM (inactive) | 40.4 µM (inactive) | 43.8 µM (inactive) | > 100 µM (inactive) | > 87.1 µM (inactive) | > 100 µM (inactive) | 50.6 µM (inactive) | > 52.2 µM (inactive) | > 100 µM (inactive) | > 71.6 µM (inactive) | 36.6 µM (inactive) | 23.8 µM (inactive) | 10.2 µM (inactive)
